From patent EP0326490B2, “Synthetic peptides and mixtures thereof for detecting HIV antibodies” (ADALTIS INC., priority 1988, dated 2004)
Positions of bridges follow the written chain, without caps; N, C: chain ends. Residues, ends and D or L forms follow the SMILES beside them.

Experiments:
HIV-2 positive sera = assay: ELISA, single peptides identifying HIV-2 positive sera; assay type: binding, human; details: single peptide
Description: A preferred convenient and classical technique for the determination of antibodies against AIDS virus using a peptide or a peptide mixture of the present invention is an enzyme-linked immunosorbent assay (ELISA). According to this test a peptide or a peptide mixture of the present invention is adsorbed onto the wells of a microtiter plate. The wells are then treated with sera to be tested. After washing, anti-human IgG labeled with peroxidase is added to the wells. The determination of the peroxidase is performed with a corresponding substrate, e.g. with o-phenylene diamine. Also in this procedure the peroxidase can be exchanged by another label, e.g. by a radioactive or fluorescence label. […]
TABLE 4 provides the results of single peptides which were individually evaluated in identifying known HIV-2 positive sera.
Each well of the microtiter plate is saturated with 100 µl of a solution containing a peptide or mixture of peptides (5 µg/ml) and left overnight. […] Serum samples to be analyzed are diluted with specimen buffer (washing buffer plus casein, 0.05% w/v). […] After 10 minutes the contents of each well is treated with 0.1 ml 2N H2SO4 and the optical density read at 450 nm. […]

[1] = Stability of linear and cyclic peptide in coating buffers (HPLC, Ellman's test); assay type: physicochemical; details: 10% acetic acid (pH 2.7)
Text: (§1) Even though results presented in TABLE 5 clearly show the superiority of cyclic peptides over their linear counterpart in detecting HIV-1-antibodies, that increased sensitivity could have been underestimated because of probable cyclization and polymerization of the linear peptide after solubilization in a carbonate buffer (pH 9.6). That experiment was repeated with the linear 87 and cyclic 87c peptides dissolved in a carbonate buffer (pH 9.6) as before and also in 10% acetic acid (pH 2.7). […] It is believed that cyclization and polymerization also occured in the wells of the microtiter plates although the exact proportion of cyclic peptide bound to the plates versus linear has not been as yet determined.

HIV-1 positive sera = assay: ELISA, single peptides identifying HIV-1 positive sera; assay type: binding, human; details: single gp41 or gp120 peptide
Description: According to this test a peptide or a peptide mixture of the present invention is adsorbed onto the wells of a microtiter plate. The wells are then treated with sera to be tested. After washing, anti-human IgG labeled with peroxidase is added to the wells. The determination of the peroxidase is performed with a corresponding substrate, e.g. with o-phenylene diamine. Also in this procedure the peroxidase can be exchanged by another label, e.g. by a radioactive or fluorescence label.
(§2) Each well of the microtiter plate is saturated with 100 µl of a solution containing a peptide or mixture of peptides (5 µg/ml) and left overnight. The wells are emptied and washed twice with a washing buffer (Tris, 0.043M; NaCl, 0.5M;thimerosal, 0.01% w/v; Tween 20, 0.05% v/v; pH 7.4). The wells are then saturated with […] of washing buffer for 1 hr. at 37°C and washed once with the same buffer. Serum samples to be analyzed are diluted with specimen buffer (washing buffer plus casein, 0.05% w/v). The bells are rinsed with washing buffer prior to the addition of the diluted serum sample (0.1 ml). These are left to incubate for 1 hr. at room temperature. The wells are then emptied, washed twice rapidly and then once for two minutes with washing buffer. […] The wells are then emptied and washed twice rapidly with washing buffer and then five times in which the buffer was in contact with the well 2 minutes per washing. The substrate solution (3,3', 5,5'-tetramethylbenzidine, 8 mg per ml of DMSO) is diluted with 100 volumes 0.1 M citrate-acetate buffer, pH 5.6 containing 0.1% v/v of 30% H2O2 and added to each well (0.1 ml per well). After 10 minutes the contents of each well is treated with 0.1 ml 2N H2SO4 and the optical density read at 450 nm. All determinations are done in duplicate.

HIV-1-antibodies = assay: ELISA optical density of serially diluted sera, cyclic versus non-cyclic peptides; assay type: binding, human; details: coated at 0.5 µg/ml
Text: TABLE 5 is provided to illustrate the sensitivity of cyclic versus non-cyclic peptides in the ELISA test by comparing the results of some sera at various dilutions.
as §1, with “determined. […]” for “determined.”
as §2

[2] = tested on: HIV-1 positive serum samples; assay: ELISA serum titers on plates coated with cyclic versus linear peptide; assay type: binding, human; details: for serum titer (serum dilution giving an absorbancy reading of 1.0): coated at 10 µg/ml
Text: as §1
Plates used in this experiment were coated with solutions of peptides at 10 µg/ml. (Experimental results of TABLE 5 were obtained with plates coated with peptides at 0.5 µg/ml). Four different HIV-1 positive serum samples were serially diluted and their titers determined. The titer was defined as the serum dilution giving an absorbancy reading of 1.0 in the conditions of the ELISA procedure already described.
The ratios of sensitivities measured with the cyclic peptide over the linear 87 peptide vary between 1.3 and 2.2 with an average of 1.8. These ratios are even larger, varying from 3.0 to 4.5, when the sensitivity of the ELISA test using the cyclic 87c peptide is compared using conditions (acidic pH) where the linear 87 peptide remains linear and is not allowed to cyclize or polymerize.
as §2

With CC[C@H](C)[C@H](NC(=O)[C@H](CCC(=O)O)NC(=O)[C@@H](NC(=O)[C@@H](N)CC(C)C)C(C)C)C(=O)N[C@H](C(=O)N1CCC[C@H]1C(=O)N[C@H](C(=O)NCC(=O)N[C@@H](Cc1ccccc1)C(=O)N[C@@H](C)C(=O)N1CCC[C@H]1C(=O)N[C@H](C(=O)N[C@@H](CCCCN)C(=O)N[C@@H](CCC(=O)O)C(=O)N[C@@H](CCCCN)C(=O)N[C@@H](CCCNC(=N)N)C(=O)N[C@@H](Cc1ccc(O)cc1)C(=O)N[C@@H](CO)C(=O)N[C@@H](CO)C(=O)N[C@@H](C)C(=O)N[C@@H](Cc1c[nH]cn1)C(=O)NCC(=O)N[C@@H](CCCNC(=N)N)C(=O)O)[C@@H](C)O)[C@@H](C)CC)[C@@H](C)O [Peptide 203] the “%Positive sera correctly Identified” value (HIV-2 positive sera) was 100%.
In the case of CC[C@H](C)[C@H](NC(=O)[C@H](CCC(=O)O)NC(=O)[C@@H](NC(=O)[C@@H](N)CC(C)C)C(C)C)C(=O)N[C@H](C(=O)N1CCC[C@H]1C(=O)N[C@H](C(=O)NCC(=O)N[C@@H](Cc1ccccc1)C(=O)N[C@@H](C)C(=O)N1CCC[C@H]1C(=O)N[C@H](C(=O)N[C@@H](CCCCN)C(=O)N[C@@H](CCC(=O)O)C(=O)N[C@@H](CCCCN)C(=O)N[C@@H](CCCNC(=N)N)C(=O)O)[C@@H](C)O)[C@@H](C)CC)[C@@H](C)O [Peptide 204], the “%Positive sera correctly Identified” value (HIV-2 positive sera) is reported as 100%.
In the case of CC[C@H](C)[C@H](NC(=O)CNC(=O)[C@H](CC(C)C)NC(=O)[C@H](CC(C)C)NC(=O)[C@H](CCC(N)=O)NC(=O)[C@H](CCC(N)=O)NC(=O)[C@H](CC(=O)O)NC(=O)[C@H](CCCCN)NC(=O)[C@H](CC(C)C)NC(=O)[C@H](Cc1ccc(O)cc1)NC(=O)[C@H](CCCNC(=N)N)NC(=O)[C@H](CCC(=O)O)NC(=O)[C@@H](NC(=O)[C@H](C)NC(=O)[C@H](CC(C)C)NC(=O)[C@@H](NC(=O)[C@@H](N)CCCNC(=N)N)[C@@H](C)CC)C(C)C)C(=O)N[C@@H](Cc1c[nH]c2ccccc12)C(=O)NCC(=O)N[C@H]1CSSC[C@@H](C(=O)N[C@H](C(=O)N[C@H](C(=O)N[C@@H](C)C(=O)N[C@H](C(=O)N2CCC[C@H]2C(=O)N[C@@H](Cc2c[nH]c3ccccc23)C(=O)N[C@@H](CC(N)=O)C(=O)N[C@@H](C)C(=O)N[C@@H](CO)C(=O)O)C(C)C)[C@@H](C)O)[C@@H](C)O)NC(=O)[C@H]([C@@H](C)CC)NC(=O)[C@H](CC(C)C)NC(=O)[C@H](CCCCN)NC(=O)CNC(=O)[C@H](CO)NC1=O [Peptide 87c] (H-RILAVERYLKDQQLLGIWGCSGKLICTTAVPWNAS-OH; disulfide 20-26), the “stability in solution (HPLC, Ellman's test)” value [1] is reported as “remained cyclic”, the “% Positive Sera correctly Idenfitied” value (HIV-1 positive sera) is reported as 99% and the “Relative performance in ELISA (optical density)” value (shortened to “Relative performance in ELISA”) (HIV-1-antibodies; serum 87V103, dilution 1/50) is reported as 0.011 optical density units. For the same compound, the “Relative performance in ELISA” value (HIV-1-antibodies; serum 1428, dilution 1/50) was over 2.0 optical density units, the “Relative performance in ELISA” value (HIV-1-antibodies; serum M-5, dilution 1 50) was over 2.0 optical density units and the “Relative performance in ELISA” value (HIV-1-antibodies; serum M-5, dilution 1/100) was over 2.0 optical density units. For the same compound, the “Relative performance in ELISA” value (HIV-1-antibodies; serum M-5, dilution 1/200) was over 2.0 optical density units, the “Relative performance in ELISA” value (HIV-1-antibodies; serum M-5, dilution 1/400) was over 2.0 optical density units and the “Relative performance in ELISA” value (HIV-1-antibodies; serum M-5, dilution 1/800) was 1.854 optical density units. The “Relative performance in ELISA” value (HIV-1-antibodies; serum M-7, dilution 1/50) was over 2.0 optical density units, the “Relative performance in ELISA” value (HIV-1-antibodies; serum M-7, dilution 1/100) was over 2.0 optical density units and the “Relative performance in ELISA” value (HIV-1-antibodies; serum M-7, dilution 1/200) was 1.729 optical density units. For the same compound, the “Relative performance in ELISA” value (HIV-1-antibodies; serum M-7, dilution 1/400) was 1.348 optical density units, the “Relative performance in ELISA” value (HIV-1-antibodies; serum M-7, dilution 1/800) was 0.611 optical density units and the “Relative performance in ELISA” value (HIV-1-antibodies; serum M-8, dilution 1/50) was over 2.0 optical density units. For the same compound, the “Relative performance in ELISA” value (HIV-1-antibodies; serum M-8, dilution 1/100) was over 2.0 optical density units, the “Relative performance in ELISA” value (HIV-1-antibodies; serum M-8, dilution 1/200) was 1.655 optical density units and the “Relative performance in ELISA” value (HIV-1-antibodies; serum M-8, dilution 1/400) was 1.064 optical density units. The “Relative performance in ELISA” value (HIV-1-antibodies; serum M-8, dilution 1/800) was 0.384 optical density units, the “Relative performance in ELISA” value (HIV-1-antibodies; serum M-16, dilution 1/50) was over 2.0 optical density units and the “Relative performance in ELISA” value (HIV-1-antibodies; serum M-16, dilution 1/100) was over 2.0 optical density units. The “Relative performance in ELISA” value (HIV-1-antibodies; serum M-16, dilution 1/200) was over 2.0 optical density units, the “Relative performance in ELISA” value (HIV-1-antibodies; serum M-16, dilution 1/400) was over 2.0 optical density units and the “Relative performance in ELISA” value (HIV-1-antibodies; serum M-16, dilution 1/800) was 1.962 optical density units. The “A B (titer 87c cyclic over titer 87 linear)” value ([2]; 10% Acetic Acid (pH 2.7), serum M-5) was 3.0, the “A B (titer 87c cyclic over titer 87 linear)” value ([2]; 10% Acetic Acid (pH 2.7), serum M-7) was 3.9 and the “A B (titer 87c cyclic over titer 87 linear)” value ([2]; 10% Acetic Acid (pH 2.7), serum M-8) was 4.5. The “A B (titer 87c cyclic over titer 87 linear)” value ([2]; 10% Acetic Acid (pH 2.7), serum M-16) was 3.7, the “A B (titer 87c cyclic over titer 87 linear)” value ([2]; Carbonate Bicarbonate 0.1M (pH 9.6), serum M-5) was 1.3 and the “A B (titer 87c cyclic over titer 87 linear)” value ([2]; Carbonate Bicarbonate 0.1M (pH 9.6), serum M-7) was 1.8. For the same compound, the “A B (titer 87c cyclic over titer 87 linear)” value ([2]; Carbonate Bicarbonate 0.1M (pH 9.6), serum M-8) was 2.2, the “A B (titer 87c cyclic over titer 87 linear)” value ([2]; Carbonate Bicarbonate 0.1M (pH 9.6), serum M-16) was 1.7 and the “ratios of sensitivities measured with the cyclic peptide over the linear 87 peptide, average” value ([2]; carbonate buffer (pH 9.6), average over four sera) was 1.8. The “serum titer (serum dilution giving an absorbancy reading of 1.0)” value (from here on “serum titer”) ([2]; coating buffer 10% Acetic Acid (pH 2.7), serum M-5) was 13 500, the “serum titer” value ([2]; coating buffer 10% Acetic Acid (pH 2.7), serum M-7) was 9 000 and the “serum titer” value ([2]; coating buffer 10% Acetic Acid (pH 2.7), serum M-8) was 6 300. For the same compound, the “serum titer” value ([2]; coating buffer 10% Acetic Acid (pH 2.7), serum M-16) was 56 000, the “serum titer” value ([2]; coating buffer Carbonate Bicarbonate 0.1M (pH 9.6), serum M-5) was 13 500 and the “serum titer” value ([2]; coating buffer Carbonate Bicarbonate 0.1M (pH 9.6), serum M-7) was 11 000. For the same compound, the “serum titer” value ([2]; coating buffer Carbonate Bicarbonate 0.1M (pH 9.6), serum M-8) was 6500 and the “serum titer” value ([2]; coating buffer Carbonate Bicarbonate 0.1M (pH 9.6), serum M-16) was 56 000.
